# Entries after “also recorded” stand apart in the source; their conditions may differ.
# Key:
# Assay type in all cases: in vivo
# [1] = system: ABL1; test: ABL1 expression in human CD45+ cells from treated BC CML mice; conditions: p=0.02
# Source text: FIG. 5F. Boxplot depicting Log 2 (cpm) expression of ABL1 by RNA-seq analysis of human CD45^+ cells isolated from vehicle (red), mismatch control (blue) and imetelstat (green) treated BC CML mouse cells (Student's t-test: vehicle: p=0.037, imetelstat: p=0.02).
# [2] = system: ADAR1-mediated RNA editing; test: RNA-seq quantification of ADAR1-mediated A-to-I RNA editing in treated BC CML mice; conditions: human cells from imetelstat treated LSC mouse models; p=0.037
# Experimental: For gene expression and RNA editing analysis, RNA editing sites were identified in REDIportal^34 (see the Supplementary Appendix). […] Gene Set Enrichment Analysis was performed with the Bioconductor package GSVA (see the Supplementary Appendix)^36. For in vitro and in vivo experiments, the Student's t-test was utilized to evaluate statistical significance of normally distributed data and Wilcoxon tests were utilized for non-normally distributed data with a p value of <0.05.
# To quantify adenosine-to-inosine (A-to-I) RNA editing events induced by ADAR1, RNA reads were aligned using 2-pass alignment with STAR 2.5.2b 2-pass alignment. […] All sites were kept if a minimum of three alternative allele carrying reads and ten total reads and a minimum allele frequency of 0.10 were present. […] We only predicted RNA editing sites with >10 reads/site to compare mismatches and excluded sites that were identified as DNA variants. […] To account for multiple testing, adjusted p-values were calculated using the Benjamini-Hochberg procedure and genes with events below an adjusted p-value of 0.05 were called significant and retained in the final lists.
# FIG. 5H. A boxplot depicting detectable RNA edits per million aligned reads in human CD45^+ cells derived from vehicle (red), mismatch control (blue) and imetelstat (green) treated BC CML mouse models. […]
# [3] = system: beta-catenin; test: FACS analysis of beta-catenin in normal HSC engrafted mouse model; conditions: human CD45+ cells and CD34+CD38- stem cells in BM
# Experimental: To assess WNT/beta-catenin activation in response to ADAR1 upregulation, a lentiviral TCF/LEF reporter was utilized in human blast crisis CML cells, K562^26. Lentiviral pCDH backbone, ADAR1^WT, shControl, and shADAR1 K562 stable cell lines were transduced with pGreenFire1-TCF/LEF1 reporter (SBI) lentivirus for 72-hours prior to CellTiter-Glo and One-Glo luciferase assays (Promega). A minimum of 50,000 cells were plated in duplicate, lysed according to the manufacturer's protocol, and measured using preloaded protocols on a Promega GloMax Discover Microplate Reader. One-Glo luciferase readouts were normalized to corresponding CellTiter-Glo values. Activated beta-catenin levels in HSC and HPCs were also quantified using a MACS Quant instrument following staining of cells with Viability Near-IR, Lineage PE-Cy5, CD45 BV510, CD34 BV421, CD38 PE-Cy7, GFP, and beta-catenin AF647 antibodies (Becton Dickinson, Inc). […] Mean fluorescence intensity (MF) of active beta-catenin in human CD45+ cells, HSCs (CD45^+CD34^+CD38^− Lin) and HPCs (CD45^+CD34^+CD38^+Lin^−) derived from engrafted bone marrow and spleen was determined with a Miltenyi Biotec MACS Quant flow cytometer.
substance,measurement,setting,value
imetelstat,ABL1 expression,[1],significantly reduced
same,ADAR1-mediated adenosine to inosine RNA editing by RNA-seq,[2],significant reduction; also recorded: significantly reduced
same,beta-catenin expression / activity in normal HSC engrafted mice,[3],no significant decrease; also recorded: does not reduce; also recorded: no significant difference
